Results published in ChEMBL document CHEMBL1136353, “Synthesis of novel fluorescent probes for the molecular chaperone Hsp90” (Bioorg Med Chem Lett, 2003).

Target: Heat shock protein HSP90 (Homo sapiens, UniProt P07900+P08238)
Experiment: Binding affinity towards Heat shock protein HSP 90-alpha inhibitor
Assay type: protein assay

Row | Compound | Kds [nM]
1 | CO[C@H]1/C=C\C=C(/C)C(=O)NC2=CC(=O)C(NCCNC(=O)CCC3=N/C(=C\c4c(C)cc(C)n4B(F)F)C=C3)=C(C[C@@H](C)C[C@H](OC)[C@@H](O)[C@@H](C)/C=C(\C)[C@@H]1OC(N)=O)C2=O | 33.8
2 | CO[C@H]1/C=C\C=C(/C)C(=O)NC2=CC(=O)C(NCCCCCCO/C(S)=N\c3ccc(-c4c5ccc(=O)cc-5oc5cc(O)ccc45)c(C(=O)O)c3)=C(C[C@@H](C)C[C@H](OC)[C@@H](O)[C@@H](C)/C=C(\C)[C@@H]1OC(N)=O)C2=O | 23.3
